# Earlier results in patent US11793177B2, “Animal model of Angelman Syndrome” (UNIVERSITY OF SOUTH FLORIDA, priority 2016, dated 2023).
# System: GR
# Conditions: treatment in adulthood; rodent
structure (smiles),measurement,value
CC(/C=C/C(=O)NO)=C\[C@@H](C)C(=O)c1ccc(N(C)C)cc1 [TSA],GR levels in the hippocampus,increased
same,repressive histone and methylation marks in the hippocampus,reversed
